Laboratory results as given in US6599943B1, “Use of hydroxyguanidines” (WaPharm AB, priority 1996, dated 2003).

Test system: rat spleen cytosol
Test: Hydroxyguanidine reducing activity of spleen cytosol by radioligand binding assay
Format: biochemical
Details: 70 μM guanoxabenz, 1 hr at 25° C.
Procedure: Assay of hydroxyguanidine reducing activity by radioligand binding. The assay is based on the possibility to measure the affinity of ligands to α2-adrenoceptors by using radioligand binding. In a typical experiment small aliquots of the sample to be measured is added to an assay containing membranes rich in α2-adrenoceptors as well as a suitable concentration of a radioligand capable of binding to α2-adrenoceptors. After the assay mixture has been incubated for a suitable time, to achieve equilibrium, the amount of radioligand bound to the membranes is measured by washing and filtering on GF/C glass fibre filters using methods that are well described in literature, and which are commonly referred to as radioligand binding. The ability of the hydroxyguanidine and its product to inhibit the binding of the radioligand to the α2-adrenoceptor constituted a measure of the hydroxyguanidine/guanidine activity of the reaction mixture. A preferred hydroxyguanidine is one which corresponding guanidine show substantially different affinity compared to the hydroxyguanidine itself. A most preferred example of such a hydroxyguanidine is guanoxabenz.
In a more more exact version of the assay the “apparent affinity” of the mixture of hydroxyguanidine and guanidine-product is measured by constructing a complete competition curve for each sample to be measured. This is achieved by adding different dilutions of the reaction mixture to the radioligand binding assay. Since the sum of the concentration of the hydroxyguanidine and the guanidine product is known, the “apparent affinity” of the mixture can be calculated from the radioligand binding data using standard procedures for radioligand binding data analysis (Uhlén and Wikberg,1991). For the purpose of the present studies the apparent affinity of the reaction mixture was estimated from competition data by using a radioligand binding analysis computer software package (Wan System AB, Trillvägen 13, S-905 92 Umeå, Sweden). The fraction (q) of guanidine product obtained is then given by: [formula] […]

## N=C(NO)NN=Cc1c(Cl)cccc1Cl [Guanoxabenz, 2(2,6-dichlorophenyl)methylene-N-hydroxyhydrazine carboxi-imidamide]
  concentration of guanabenz in the sample: 17.5 µM
  conversion of guanoxabenz to guanabenz: 25%
  q (fraction of guanidine product): 0.25
